From patent US10370355B2, “Tetrahydroisoquinoline derivatives” (UCB Biopharma SPRL, priority 2016, dated 2019)

Target: T1, dopamine D1 receptor (Homo sapiens, UniProt P21728)
T1 construct: host or cells: LMtk (Ltk-) mouse fibroblast cells
Assay: cAMP HTRF potentiation assay (presence of EC20 dopamine)
Format: cell-based
Details: potentiation of cAMP in presence of EC20 dopamine (1.1 nM); LMtk (Ltk-) mouse fibroblast cells expressing the dopamine D1 receptor
From the text: The present assay allows to measure respectively the effects of compounds of the Examples in the absence of dopamine (“activation assay”) and the effects of compounds of the Examples in the presence of dopamine (“potentiation assay”).
The potentiation assay measures the ability of compounds to increase the levels of cAMP produced by a low-threshold concentration of dopamine. The concentration of dopamine used ([EC20]) is designed to produce 20% stimulation compared to the maximal response (100%) seen with increasing the concentration of dopamine. To measure this potentiation we incubate increasing concentrations of the compound with the [EC2O] of dopamine and measure the potentiation as increases in cAMP production. The pEC50 of a compound is the −log 10 of the concentration of the compound which produces 50% of the potentiation of the cAMP levels and the Erel is the relative efficacy, defined as the maximal % potentiation produced by the compound compared to the maximal response produced by increasing concentrations of dopamine (Erel of 1=dopamine maximum response).
Cells were cultured at 37° C. in a humidified atmosphere of 5% CO2. Cells were grown in DMEM-F12+GlutaMAX™-I medium (GIBCO®, Invitrogen, Merelbeke, Belgium) containing 10% fetal bovine serum (BioWhittaker®, Lonza, Verviers, Belgium), 400 μg/mL Geneticin (GIBCO®), 100 IU/mL Penicillin and 100 IU/mL Streptomycin (Pen-Strep solution, BioWhittaker®).
The measurement of changes in intracellular cyclic adenosinemonophopshpate (cAMP) was determined using the HTRF cAMP dynamic assay kit from CisBio (Codolet, France). Using homogenous time-resolved fluoresence technology, the assay is based on competition between native cAMP produced by cells and cAMP labelled with the dye d2. The tracer binding is determined by an anti-cAMP antibody labeled with cryptate. The effects of the compound alone (agonism) was determined by performing the assay in the absence of dopamine, whilst the effect of the compound as a positive allosteric modulator (PAM) was determined in the presence of an EC20 concentration of dopamine. Cells (20,000 per well) are incubated in 384 plates for 1 hour at room temperature in a final volume of 20 μLHBSS (Lonza, with calcium, magnesium and HEPES buffer 20 mM, pH 7.4) containing: isobutyl methylxanthine (Sigma, 0.1 mM final), varying concentrations of test compound (typically […] to 10^−4.5M) in the presence and absence of dopamine (1.1 nM final). The reaction is then terminated and the cells lysed by adding the d2 detection reagent in lysis buffer (10 microL) and the cryptate reagent in lysis buffer (10 microl) according to manufacturer's instructions. This is then incubated for a further 60 min at room temperature and changes in HTRF fluorescent emission ratio determined according to manufacturer's instructions using an Envision plate reader (Perkin Elmer, Zaventem, Belgium) with laser excitation. All incubations were performed in duplicate and results were compared to a concentration-effect curve to dopamine. (10^−11M to 10^−6M).
Data was analyzed using Excel and PRISM (GraphPad Software) to obtain pEC50 and Erel using the 4-parameter logistic equation (DeLean et al, 1978) where Erel is the fitted maximal response of the test compound minus basal expressed as a percentage relative to that obtained with dopamine which was defined as 100%.

T1 sequence (P21728 whole entry): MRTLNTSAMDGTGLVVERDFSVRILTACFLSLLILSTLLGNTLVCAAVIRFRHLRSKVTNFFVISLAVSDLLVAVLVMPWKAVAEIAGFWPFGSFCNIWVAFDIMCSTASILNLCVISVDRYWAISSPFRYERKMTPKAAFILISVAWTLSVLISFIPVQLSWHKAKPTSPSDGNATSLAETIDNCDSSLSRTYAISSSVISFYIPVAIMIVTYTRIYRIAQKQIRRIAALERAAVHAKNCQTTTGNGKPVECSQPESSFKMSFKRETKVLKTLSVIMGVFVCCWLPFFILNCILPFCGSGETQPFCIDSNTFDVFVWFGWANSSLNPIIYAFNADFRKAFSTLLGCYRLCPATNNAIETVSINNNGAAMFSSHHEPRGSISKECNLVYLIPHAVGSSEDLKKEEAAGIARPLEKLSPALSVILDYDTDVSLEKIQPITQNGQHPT

Row | SMILES | EC50
1 | C[C@H]1c2cccc(C(C)(O)C(F)F)c2CCN1C(=O)Cc1c(Cl)ccc2nn(C)c(Cl)c12 (single isomer, unassigned) [Example 12] | 31.6 to 100 nM
2 | C[C@H]1c2cccc(C(C)(O)C(F)F)c2CCN1C(=O)Cc1c(Cl)cnc2[nH]nc(Cl)c12 (single isomer, unassigned) [Example 16] | ≤ 31.6 nM
3 | C[C@H]1c2cccc(C(C)(O)C(F)F)c2CCN1C(=O)Cc1c(Cl)c(C#N)cn2ncc(Cl)c12 (single isomer, unassigned) [Example 32] | ≤ 31.6 nM
4 | C[C@H]1c2cccc([C@H](O)C(F)F)c2CCN1C(=O)Cc1c(Cl)ccc2onc(Cl)c12 [Example 1, 2-(3,5-dichloro-1,2-benzoxazol-4-yl)-1-[(1S)-5-[(1S)-2,2-difluoro-1-hydroxy-ethyl]-1-methyl-3,4-dihydro-1H-isoquinolin-2-yl]ethanone] | ≤ 31.6 nM
5 | C[C@H]1c2cccc([C@](C)(O)CF)c2CCN1C(=O)Cc1c(Cl)ccc2[nH]nc(Cl)c12 [Example 3, 2-(3,5-dichloro-1H-indazol-4-yl)-1-[(1S)-5-[(1S)-2-fluoro-1-hydroxy-1-methyl-ethyl]-1-methyl-3,4-dihydro-1H-isoquinolin-2-yl]ethanone] | ≤ 31.6 nM
6 | C[C@H]1c2cccc([C@H](O)C(F)F)c2CCN1C(=O)Cc1c(Cl)ccc2[nH]nc(Cl)c12 [Example 5, 2-(3,5-dichloro-1H-indazol-4-yl)-1-[(1S)-5-[(1S)-2,2-difluoro-1-hydroxy-ethyl]-1-methyl-3,4-dihydro-1H-isoquinolin-2-yl]ethanone] | ≤ 31.6 nM
7 | C[C@H]1c2cccc([C@@H](O)C(F)F)c2CCN1C(=O)Cc1c(Cl)ccc2nn(C)c(Cl)c12 [Example 8, 2-(3,5-dichloro-2-methyl-indazol-4-yl)-1-[(1S)-5-[(1R)-2,2-difluoro-1-hydroxy-ethyl]-1-methyl-3,4-dihydro-1H-isoquinolin-2-yl]ethanone] | ≤ 31.6 nM
8 | C[C@H]1c2cccc([C@H](O)C(F)F)c2CCN1C(=O)Cc1c(Cl)ccc2nn(C)c(Cl)c12 [Example 9, 2-(3,5-dichloro-2-methyl-indazol-4-yl)-1-[(1S)-5-[(1S)-2,2-difluoro-1-hydroxy-ethyl]-1-methyl-3,4-dihydro-1H-isoquinolin-2-yl]ethanone] | 31.6 to 100 nM
9 | C[C@H]1c2cccc([C@@](C)(O)CF)c2CCN1C(=O)Cc1c(Cl)cnc2[nH]nc(Cl)c12 [Example 15, 2-(3,5-dichloro-1H-pyrazolo[3,4-b]pyridin-4-yl)-1-[(1S)-5-[(1R)-2-fluoro-1-hydroxy-1-methyl-ethyl]-1-methyl-3,4-dihydro-1H-isoquinolin-2-yl]ethanone] | ≤ 31.6 nM
10 | C[C@H]1c2cccc(C(O)(CF)CF)c2CCN1C(=O)Cc1c(Cl)cnc2c1c(Cl)nn2C [Example 23, 2-(3,5-dichloro-1-methyl-pyrazolo[3,4-b]pyridin-4-yl)-1-[(1S)-5-[2-fluoro-1-(fluoromethyl)-1-hydroxy-ethyl]-1-methyl-3,4-dihydro-1H-isoquinolin-2-yl]ethanone] | 31.6 to 100 nM
11 | C[C@H]1c2cccc([C@@](C)(O)CF)c2CCN1C(=O)Cc1c(Cl)ccc2c1c(Cl)nn2C [Example 24, 2-(3,5-dichloro-1-methyl-indazol-4-yl)-1-[(1S)-5-[(1R)-2-fluoro-1-hydroxy-1-methyl-ethyl]-1-methyl-3,4-dihydro-1H-isoquinolin-2-yl]ethanone] | 31.6 to 100 nM
12 | C[C@H]1c2cccc([C@](C)(O)CF)c2CCN1C(=O)Cc1c(Cl)ccn2ncc(Cl)c12 [Example 29, 2-(3,5-dichloropyrazolo[1,5-a]pyridin-4-yl)-1-[(1S)-5-[(1S)-2-fluoro-1-hydroxy-1-methyl-ethyl]-1-methyl-3,4-dihydro-1H-isoquinolin-2-yl]ethanone] | ≤ 31.6 nM

Further lines, results first:

Row | EC50 | SMILES
13 | ≤ 31.6 nM | C[C@H]1c2cccc(C(C)(O)C(F)F)c2CCN1C(=O)Cc1c(Cl)ccc2[nH]nc(Cl)c12 (single isomer, unassigned) [Example 6]
14 | ≤ 31.6 nM | C[C@H]1c2cccc(C(C)(O)C(F)F)c2CCN1C(=O)Cc1c(Cl)cnc2c1c(Cl)nn2C (single isomer, unassigned) [Example 21]
15 | 31.6 to 100 nM | C[C@H]1c2cccc(C(C)(O)C(F)F)c2CCN1C(=O)Cc1c(Cl)ccc2c1c(Cl)nn2C (single isomer, unassigned) [Example 26]
16 | 31.6 to 100 nM | C[C@H]1c2cccc(C(C)(O)C(F)F)c2CCN1C(=O)Cc1c(Cl)c(C2CC2)cn2ncc(Cl)c12 (single isomer, unassigned) [Example 31]
17 | ≤ 31.6 nM | C[C@H]1c2cccc([C@@](C)(O)CF)c2CCN1C(=O)Cc1c(Cl)ccc2[nH]nc(Cl)c12 [Example 2, 2-(3,5-dichloro-1H-indazol-4-yl)-1-[(1S)-5-[(1R)-2-fluoro-1-hydroxy-1-methyl-ethyl]-1-methyl-3,4-dihydro-1H-isoquinolin-2-yl]ethanone]
18 | ≤ 31.6 nM | C[C@H]1c2cccc([C@@H](O)C(F)F)c2CCN1C(=O)Cc1c(Cl)ccc2[nH]nc(Cl)c12 [Example 4, 2-(3,5-dichloro-1H-indazol-4-yl)-1-[(1S)-5-[(1R)-2,2-difluoro-1-hydroxy-ethyl]-1-methyl-3,4-dihydro-1H-isoquinolin-2-yl]ethanone]
19 | 31.6 to 100 nM | C[C@H]1c2cccc([C@@H](O)C(F)F)c2CCN1C(=O)Cc1c(Cl)ccc2c1c(Cl)nn2C [Example 10, 2-(3,5-dichloro-1-methyl-indazol-4-yl)-1-[(1S)-5-[(1R)-2,2-difluoro-1-hydroxy-ethyl]-1-methyl-3,4-dihydro-1H-isoquinolin-2-yl]ethanone]
20 | 31.6 to 100 nM | C[C@H]1c2cccc([C@H](O)C(F)F)c2CCN1C(=O)Cc1c(Cl)ccc2c1c(Cl)nn2C [Example 11, 2-(3,5-dichloro-1-methyl-indazol-4-yl)-1-[(1S)-5-[(1S)-2,2-difluoro-1-hydroxy-ethyl]-1-methyl-3,4-dihydro-1H-isoquinolin-2-yl]ethanone]
21 | ≤ 31.6 nM | C[C@H]1c2cccc([C@](C)(O)CF)c2CCN1C(=O)Cc1c(Cl)cnc2[nH]nc(Cl)c12 [Example 14, 2-(3,5-dichloro-1H-pyrazolo[3,4-b]pyridin-4-yl)-1-[(1S)-5-[(1S)-2-fluoro-1-hydroxy-1-methyl-ethyl]-1-methyl-3,4-dihydro-1H-isoquinolin-2-yl]ethanone]
22 | 31.6 to 100 nM | C[C@H]1c2cccc(C(O)(CF)CF)c2CCN1C(=O)Cc1c(Cl)cnc2[nH]nc(Cl)c12 [Example 18, 2-(3,5-dichloro-1H-pyrazolo[3,4-b]pyridin-4-yl)-1-[(1S)-5-[2-fluoro-1-(fluoromethyl)-1-hydroxy-ethyl]-1-methyl-3,4-dihydro-1H-isoquinolin-2-yl]ethanone]
23 | 31.6 to 100 nM | C[C@H]1c2cccc([C@@](C)(O)CF)c2CCN1C(=O)Cc1c(Cl)cnc2c1c(Cl)nn2C [Example 19, 2-(3,5-dichloro-1-methyl-pyrazolo[3,4-b]pyridin-4-yl)-1-[(1S)-5-((1R)-2-fluoro-1-hydroxy-1-methyl-ethyl)-1-methyl-3,4-dihydro-1H-isoquinolin-2-yl]ethanone]
24 | ≤ 31.6 nM | C[C@H]1c2cccc([C@](C)(O)CF)c2CCN1C(=O)Cc1c(Cl)cnc2c1c(Cl)nn2C [Example 20, 2-(3,5-dichloro-1-methyl-pyrazolo[3,4-b]pyridin-4-yl)-1-[(1S)-5-((1S)-2-fluoro-1-hydroxy-1-methyl-ethyl)-1-methyl-3,4-dihydro-1H-isoquinolin-2-yl]ethanone]
25 | 31.6 to 100 nM | C[C@H]1c2cccc([C@](C)(O)CF)c2CCN1C(=O)Cc1c(Cl)ccc2c1c(Cl)nn2C [Example 25, 2-(3,5-dichloro-1-methyl-indazol-4-yl)-1-[(1S)-5-[(1S)-2-fluoro-1-hydroxy-1-methyl-ethyl]-1-methyl-3,4-dihydro-1H-isoquinolin-2-yl]ethanone]
26 | ≤ 31.6 nM | C[C@H]1c2cccc(C(O)(CF)CF)c2CCN1C(=O)Cc1c(Cl)ccc2c1c(Cl)nn2C [Example 28, 2-(3,5-dichloro-1-methyl-indazol-4-yl)-1-[(1S)-5-[2-fluoro-1-(fluoromethyl)-1-hydroxy-ethyl]-1-methyl-3,4-dihydro-1H-isoquinolin-2-yl]ethanone]
